# Assays:
# [1] = In vitro phase II metabolism with mouse hepatic microsomes and SAM, UDPGA or PAPS; type: in vitro ADME; conditions: PZ-DHA 1.1 µM, SAM, 1 h, 37 °C
# Protocol: Figure 3 PZ-DHA undergoes phase II metabolism in the presence of freshly prepared mouse liver microsomes. PZ-DHA (1.1 µM) was incubated with S-(5′-adenosyl)-L-methionine chloride dihydrochloride (1 mM), […] (2 mM) and alamethicin (25 µg/mL) and adenosine 3′-phosphate 5′-phosphosulfate lithium salt, hydrate (0.5 mM) in the presence of mouse liver microsomal enzymes (3 mg/mL) at 37 °C for 1 h. (A) Tri-methylated-PZ-DHA (4,4′,6′-tri-O-methyl-phloridzin docosahexaenoate) (MW = 788.88 g/mol), (B) phloridzin docosahexaenoate-4-O-glucuronide (MW = 923.02 g/mol) and phloridzin docosahexaenoate-4′-O-glucuronide (MW = 923.02 g/mol), and (C) sulfated-PZ-DHA (phloridzin docosahexaenoate-4,4′-di-O-sulphide) metabolite (MW = 906.20 g/mol) were identified.
# Mouse hepatic microsomes were freshly isolated from the livers of male C57BL/6 mice, and the entire extraction procedure was carried out at 4 °C. Mouse livers were minced and homogenized in KCl/sucrose phosphate buffer (0.154 M KCl, 0.25 M sucrose in 50 mM potassium phosphate buffer (K2HPO4/KH2PO4) (PPB), pH 7.5). […] The protein concentration was determined using a Bradford assay (R^2 = 1.00), and microsomes were stored at − 80 °C.
# Potential in vitro phase I and phase II metabolites of PZ-DHA were detected by incubating PZ-DHA in the presence of freshly-prepared mouse hepatic microsome preparations. Phase I metabolites were determined by incubating 1.1 µM PZ-DHA with 100 mM NADPH in the presence of mouse hepatic microsomes for 1 h at 37 °C. Phase II methylation, glucuronidation, and sulphation of PZ-DHA was determined by incubating 1.1 µM PZ-DHA with 1 mM SAM, 2 mM UDPGA, and 0.5 mM PAPS, respectively, in the presence of freshly prepared mouse hepatic microsome for 1 h at 37 °C (Supplementary information Tables S1–S4). […]
# PZ-DHA and/or PZ-DHA metabolites in malignant/non-malignant epithelial cell lysates, in vitro microsome enzyme reaction mixtures, and mouse serum aliquots were determined using UPLC-ESI–MS/MS instrument (Waters Limited, Mississauga, ON, Canada). […]
# [2] = Tissue distribution of PZ-DHA and metabolites after intraperitoneal injection; type: in vivo, Balb/c female mice; conditions: PZ-DHA 100 mg/kg intraperitoneal
# Protocol: Figure 5 PZ-DHA and metabolites were detected in various organs of PZ-DHA-treated Balb/c female mice. PZ-DHA (100 mg/kg) was administered by intraperitoneal injection to Balb/c female mice and liver, lungs, kidneys, spleen and brain were harvested. Organs were homogenized and PZ-DHA in (A) liver, kidneys, lungs, spleen, and brain was identified and quantified using a calibration curve. The abundance of (B) 4,4′,6′-tri-O-methyl-phloridzin docosahexaenoate in liver, kidneys, lungs, and serum) and (C) phloridzin docosahexaenoate-4,4′-di-O-sulphide in the liver was determined in PZ-DHA equivalence.
# (§1) Pharmacokinetic parameters and in vivo generation of PZ-DHA metabolites were studied using Balb/c female mice. Mice were randomly divided into six groups (n = 4/group) and PZ-DHA (100 mg/kg) was administered by intraperitoneal injection. For each mouse, a single blood collection was performed by cardiac puncture at one of six different time points (t = 15, 30, 60, 90, 120, and 240 min). At the end of blood collection, mice were euthanized by cervical dislocation and organs (liver, lungs, kidneys, spleen, and brain) were harvested. Blood samples were allowed to clot by leaving undisturbed at room temperature for 1 h, and serum was separated by centrifuging at 2000×g for 10 min at 4 °C. The serum was carefully removed and stored on ice until further processing. Serum proteins were precipitated by incubating an aliquot of serum with a mixture of acetonitrile:acetone (80:20) containing 0.1 mg/mL quercetin (internal standard) at 4 °C overnight. The supernatant was separated by centrifuging at 14,000×g for 10 min at 4 °C. Excess solvent was evaporated using nitrogen flush and mixed with methanol and filtered. PZ-DHA-metabolites in the filtrate were identified using a UPLC-ESI–MS/MS (Waters Limited, Mississauga, ON, Canada). Organs were homogenized in PBS (1:5 w/v). Supernatants were collected by centrifugation at 14,000 × g for 15 min at 4 °C. Proteins were precipitated by incubating in acetonitrile:acetone (80:20) containing 0.1 mg/mL quercetin (internal standard) at 4 °C overnight. Supernatants were treated as explained above, and PZ-DHA and/or PZ-DHA-metabolites were identified.
# [3] = Serum pharmacokinetics after intraperitoneal injection; type: in vivo, Balb/c female mice; conditions: PZ-DHA 100 mg/kg intraperitoneal, serum
# Protocol: Figure 4 Intraperitoneal administration of PZ-DHA results in absorption into the systemic circulation of Balb/c female mice. PZ-DHA (100 mg/kg) was administered by intraperitoneal injection to Balb/c female mice. Blood collection was performed and serum was separated. PZ-DHA was identified and quantified using a calibration curve (R^2 = 0.99) generated using a standard series of PZ-DHA concentrations made in mouse serum. PZ-DHA concentration was plotted against time. The elimination rate of PZ-DHA was determined using a semi-log curve of PZ-DHA concentration vs. time curve.
# as §1
# A calibration curve (R^2 = 0.99) generated using a standard series of PZ-DHA concentrations prepared in mouse serum (spiked with 0.1 mg/mL quercetin) was used for the quantification of PZ-DHA. The average PZ-DHA concentrations were plotted against time. The maximum serum concentration of serum (Cmax) and the time to reach Cmax (Tmax) were read directly from the graph. The linear trapezoidal method was used to calculate the area under the curve (AUC) from t = 0 to infinity, the biological half-life of PZ-DHA (t1/2), determined using the plotted curve in Graphpad Prism software (version 5; La Jolla, CA, USA). The clearance following IP administration was determined by non-compartmental analysis using the relationship CL/F = D/AUC. The elimination rate constant λ was determined by linear regression of the elimination phase of the semi-log transformed concentration versus time curve. The t1/2 was calculated using the formula 0.693/λ and the volume of distribution Vd/F from the formula Vd/F = CL/(F*λ).
# [4] = system: mammary carcinoma cells, including MDA-MB-231 and 4T1; parameters: method as in PMID 31473253; conditions: 20 µM for PZ-DHA; cited from earlier work
# [5] = system: mammary carcinoma cells and mammary epithelial cells; assay: Cellular uptake assay, all cell lines together; type: cell-based, human and mouse; conditions: all cell lines, 20 μM, 72 h
# Protocol: Figure 1 Conjugation of PZ with DHA increases the cellular uptake and stability of PZ and DHA. The cells were treated with 20 μM of PZ, DHA or PZ-DHA and cultured for 72 h at 37 °C. Cells were harvested and washed thoroughly using cold PBS. Cells were lysed in cold acetone containing 0.05 mg/mL quercetin, and cell lysates were collected by centrifugation and analyzed by using UPLC-ESI-MS/MS. (A) mean % cellular uptake of PZ, DHA and PZ-DHA. (B) fold increase in intracellular PZ and DHA when conjugated. ANOVA multiple means statistical comparison method was performed and differences among means were compared using Tukey’s test; *p < 0.05. (MDA-MB-231 p = 0.008; MDA-MB-468 p = 0.01; 4T1 p = 0.02; MCF-7 p = 0.01; MCF-10A p = 0.0005).
# Cells were seeded at a density of 3 × 10^5 cells (MDA-MB-231, MDA-MB-468, MCF-7, and MCF-10A) or 1 × 10^5 cells (4T1) /T-75 flask. The cells were cultured overnight to promote cell adhesion. Adherent cells were treated with a sub-cytotoxic concentration (20 μM) of PZ, DHA or PZ-DHA and cultured for 72 h at 37 °C. The supernatant was carefully removed, and cell monolayers were washed with cold PBS. Cells were harvested using TrypLE Express and washed thoroughly with cold PBS. The cell pellet was resuspended in 3 mL of cold acetone containing 0.05 mg/mL quercetin as the internal standard, and incubated overnight at 4 °C. Cell lysates were collected by centrifugation at 14,000×g for 15 min at 4 °C and samples were concentrated by evaporating acetone under a stream of nitrogen gas. Dry pellets were reconstituted in methanol and filtered. The sample was analyzed using a UPLC/ESI/MS system. The percentage cell uptake of the total dose was quantified using standard curves of PZ (R^2 = 0.99), DHA (R^2 = 0.98) or PZ-DHA (R^2 = 0.99) made in methanol.
# (§2) PZ-DHA and/or PZ-DHA metabolites in malignant/non-malignant epithelial cell lysates, in vitro microsome enzyme reaction mixtures, and mouse serum aliquots were determined using UPLC-ESI–MS/MS instrument (Waters Limited, Mississauga, ON, Canada). All mass spectroscopic analyses were performed using mass scan (full-scan, identification of unknowns) and single ion monitoring (SIM; quantification of PZ, DHA, PZ-DHA, and quercetin) modes of a Waters H-class UPLC separations module coupled with a Micromass Quattro micro API MS/MS system and MassLynx V4.0 control software. An Allure biphenyl column (100 mm × 2.1 mm, 1.8 μm, Restek Pure Chromatography, Bellefonte, PA, USA) and a flow rate of 0.3 mL/min were employed. ESI- mode with a capillary voltage of 3000 V and a nebulizer gas (N2) temperature of 375 °C were used. A volume of 2 µL sample was injected.
# [6] = In vitro phase I metabolism with mouse hepatic microsomes and NADPH; type: in vitro ADME; conditions: PZ-DHA 1.1 µM, 100 mM NADPH, 1 h, 37 °C
# Protocol: Figure 2 PZ-DHA undergoes phase I metabolism in the presence of freshly prepared mouse liver microsomes. PZ-DHA (1.1 µM) was incubated with 100 mM NADPH in the presence of mouse liver microsome for 1 h at 37 °C. Metabolites from PZ-DHA (A) hydrolysis, (B) and (C) hydroxylation, and (D) epoxidation were identified.
# Mouse hepatic microsomes were freshly isolated from the livers of male C57BL/6 mice, and the entire extraction procedure was carried out at 4 °C. Mouse livers were minced and homogenized in KCl/sucrose phosphate buffer (0.154 M KCl, 0.25 M sucrose in 50 mM potassium phosphate buffer (K2HPO4/KH2PO4) (PPB), pH 7.5). Cell/tissue debris was separated out by centrifuging homogenized livers at 12,000×g for 22 min at 4 °C. The supernatant was collected and centrifuged at 100,000×g for 70 min at 4 °C. The pellet was gently rinsed using 50 mM PPB and resuspended in glycerol/phosphate buffer (20% glycerol (v/v), 80% 0.1 M PPB pH 7.5). The protein concentration was determined using a Bradford assay (R^2 = 1.00), and microsomes were stored at − 80 °C.
# Potential in vitro phase I and phase II metabolites of PZ-DHA were detected by incubating PZ-DHA in the presence of freshly-prepared mouse hepatic microsome preparations. Phase I metabolites were determined by incubating 1.1 µM PZ-DHA with 100 mM NADPH in the presence of mouse hepatic microsomes for 1 h at 37 °C. Phase II methylation, glucuronidation, and sulphation of PZ-DHA was determined by incubating 1.1 µM PZ-DHA with 1 mM SAM, 2 mM UDPGA, and 0.5 mM PAPS, respectively, in the presence of freshly prepared mouse hepatic microsome for 1 h at 37 °C (Supplementary information Tables S1–S4). To assess the efficiency of the metabolic process, controls (no PZ-DHA control, no mouse hepatic microsome control and no co-factor control) were incubated in parallel to the test. Reactions were terminated by adding a mixture of 4 mL ice-cold acetonitrile:acetone (80:20) containing 0.05 mg/mL quercetin as the internal standard. Proteins were precipitated by incubating the reaction mixture at 4 °C overnight and separated by centrifuging at 14,000 × g for 15 min at 4 °C. Supernatants were concentrated under nitrogen flush, filtered and PZ-DHA and/or PZ-DHA metabolites were identified using a UPLC-ESI–MS/MS system (Waters Limited, Mississauga, ON, Canada).
# as §2
molecule,measurement,setting,value
CC/C=C\C/C=C\C/C=C\C/C=C\C/C=C\C/C=C\CCC(=O)OC[C@H]1O[C@@H](Oc2cc(O)cc(O)c2C(=O)CCc2ccc(O[C@@H]3O[C@H](C(=O)O)[C@@H](O)[C@H](O)[C@H]3O)cc2)[C@H](O)[C@@H](O)[C@@H]1O [phloridzin docosahexaenoate-4-O-glucuronide],phase II metabolite of PZ-DHA identified,[1],identified
"CC/C=C\C/C=C\C/C=C\C/C=C\C/C=C\C/C=C\CCC(=O)OC[C@H]1O[C@@H](Oc2cc(OC)cc(OC)c2C(=O)CCc2ccc(OC)cc2)[C@H](O)[C@@H](O)[C@@H]1O [4,4′,6′-tri-O-methyl-phloridzin docosahexaenoate]",phase II metabolite of PZ-DHA identified,[1],identified
same,"time at which the metabolite reached the maximum concentration, post-injection",[2]; all organs except for serum,< 1 h
same,metabolite detection in tissue after PZ-DHA,"[2]; liver, lungs, and kidneys",detected
same,metabolite concentration in serum throughout the experimental period,[2]; serum,remained constant
same,metabolite detection in tissue after PZ-DHA,[2]; spleen or brain,not found
"CC/C=C\C/C=C\C/C=C\C/C=C\C/C=C\C/C=C\CCC(=O)O [DHA, docosahexaenoic acid, reference compound]",phase I metabolite in serum after PZ-DHA,[3],detection
same,migration and invasion of mammary carcinoma cells,[4],to a lesser extent than PZ-DHA
same,"cellular uptake (as a % of the dose), in words",[5],very low
same,phase I metabolite of PZ-DHA identified,[6],identified
"O=C(CCc1ccc(O)cc1)c1c(O)cc(O)cc1O[C@@H]1O[C@H](CO)[C@@H](O)[C@H](O)[C@H]1O [PZ, phloridzin]",phase I metabolite in serum after PZ-DHA,[3],detection
same,migration and invasion of mammary carcinoma cells,[4],to a lesser extent than PZ-DHA
same,"cellular uptake (as a % of the dose), in words",[5],very low
same,phase I metabolite of PZ-DHA identified,[6],identified
tri-epoxy-phloridzin docosahexaenoate,phase I metabolite of PZ-DHA identified,[6],identified
O=C(CCc1ccc(O)c(O)c1)c1c(O)cc(O)cc1O[C@@H]1O[C@H](CO)[C@@H](O)[C@H](O)[C@H]1O [3-hydroxy-phloridzin],phase I metabolite of PZ-DHA identified,[6],identified
CC/C=C\C/C=C\C/C=C\C/C=C\C/C=C\C/C=C\CCC(=O)OC[C@H]1O[C@@H](Oc2cc(O)cc(O)c2C(=O)CCc2ccc(O)c(O)c2)[C@H](O)[C@@H](O)[C@@H]1O [3-hydroxy-phloridzin docosahexaenoate],phase I metabolite of PZ-DHA identified,[6],identified
CC/C=C\C/C=C\C/C=C\C/C=C\C/C=C\C/C=C\CCC(=O)OC[C@H]1O[C@@H](Oc2cc(O[C@@H]3O[C@H](C(=O)O)[C@@H](O)[C@H](O)[C@H]3O)cc(O)c2C(=O)CCc2ccc(O)cc2)[C@H](O)[C@@H](O)[C@@H]1O [phloridzin docosahexaenoate-4′-O-glucuronide],phase II metabolite of PZ-DHA identified,[1],identified

# From paper PMC7721897, “Metabolism and pharmacokinetics of a novel polyphenol fatty acid ester phloridzin docosahexaenoate in Balb/c female mice” (Scientific Reports, 2020)
